# From article PMC7614683, “A small molecule PI3Kα activator for cardioprotection and neuroregeneration” (Nature, 2023)
# Target: T1, full length p110α/p85α (Homo sapiens, UniProt P42336)
# T1 construct: Full-length human p110α was expressed either in a complex with full-length human p85α (for HTS, biochemistry and HDX-MS); 6xHis tag followed by TEV protease site (N); host or cells: Spodoptera frugiperda Sf9, baculovirus
# Assay: HDX-MS
# Type: binding
# Description: Sample preparation: HDX-MS experiments were carried out as described previously. […] In total, three biological replicates, i.e. three separate protein preparations, each with exchange experiments carried out in triplicate were conducted. Data presented in the manuscript is a single biological replicate. Data acquisition and analysis were as follows: Each sample was thawed and injected onto an M-Class Acquity UPLC with HDX Technology (Waters) kept at 0.1°C. Proteins were digested in-line using an Enzymate Pepsin Column (Waters, #186007233) at 15°C for 2 min at 200 μl/min. Peptic peptides were then eluted onto an Acquity UPLC BEH C18 Column (Waters, #186002346) equilibrated in Pepsin-A buffer (0.1% formic acid) and separated using a 5-35% gradient of Pepsin-B buffer (0.1% formic acid, 99% acetonitrile) over 7 min at a flowrate of 40 μl/min. Data were collected on a Waters Cyclic IMS, with an electrospray ionisation source, from 50-2000 m/z. Data were collected in the HDMS^E mode. A single pass of the cyclic IMS was conducted. A “blank” sample of protein dilution buffer with quench was run between samples, and carry-over of peptides was routinely monitored. Five replicates were used to identify non-deuterated peptides. Criteria used to include peptides in the HDX-MS dataset were: minimum intensity 5000, minimum sequence length 5, maximum sequence length 25, a minimum of 3 fragment ions, a minimum of 0.1 products per amino acid, a minimum score of 6.62, a maximum MH+ Error of 10 ppm, identification in at least two datasets with a retention time RSD of less than 10%. Data was analysed using Protein Lynx Global Server (Waters) and DynamX (Waters). All peptides were manually inspected for EX1 kinetics and sufficient quality of the peptide envelope. Data quality, experiment design, and reporting of data meets the criteria as determined by the HDX-MS community. Uptake files were created using Baryonyx. Data are available via ProteomeXchange with identifier PXD037721.
# [1] = PK3CA_HUMAN peptide 241-250, time point 3 of 5
# [2] = PK3CA_HUMAN peptide 241-250, time point 4 of 5
# [3] = PK3CA_HUMAN peptide 241-250, time point 5 of 5
# [4] = PK3CA_HUMAN peptide 260-266, time point 1 of 5
# [5] = PK3CA_HUMAN peptide 260-266, time point 2 of 5
# [6] = PK3CA_HUMAN peptide 260-266, time point 3 of 5
# [7] = PK3CA_HUMAN peptide 260-266, time point 4 of 5
# [8] = PK3CA_HUMAN peptide 260-266, time point 5 of 5
# [9] = PK3CA_HUMAN peptide 262-272, time point 1 of 5
# [10] = PK3CA_HUMAN peptide 262-272, time point 2 of 5
# [11] = PK3CA_HUMAN peptide 262-272, time point 3 of 5
# [12] = PK3CA_HUMAN peptide 262-272, time point 4 of 5
# [13] = PK3CA_HUMAN peptide 262-272, time point 5 of 5
# [14] = PK3CA_HUMAN peptide 273-281, time point 1 of 5
# [15] = PK3CA_HUMAN peptide 273-281, time point 2 of 5
# [16] = PK3CA_HUMAN peptide 273-281, time point 3 of 5
# [17] = PK3CA_HUMAN peptide 273-281, time point 4 of 5
# [18] = PK3CA_HUMAN peptide 273-281, time point 5 of 5
# [19] = PK3CA_HUMAN peptide 278-286, time point 1 of 5
# [20] = PK3CA_HUMAN peptide 278-286, time point 2 of 5
# [21] = PK3CA_HUMAN peptide 278-286, time point 3 of 5
# [22] = PK3CA_HUMAN peptide 278-286, time point 4 of 5
# [23] = PK3CA_HUMAN peptide 278-286, time point 5 of 5
# [24] = PK3CA_HUMAN peptide 287-293, time point 1 of 5
# [25] = PK3CA_HUMAN peptide 287-293, time point 2 of 5
# [26] = PK3CA_HUMAN peptide 287-293, time point 3 of 5
# [27] = PK3CA_HUMAN peptide 287-293, time point 4 of 5
# [28] = PK3CA_HUMAN peptide 287-293, time point 5 of 5
# [29] = PK3CA_HUMAN peptide 288-293, time point 1 of 5
# [30] = PK3CA_HUMAN peptide 288-293, time point 2 of 5
# [31] = PK3CA_HUMAN peptide 288-293, time point 3 of 5
# [32] = PK3CA_HUMAN peptide 288-293, time point 4 of 5
# [33] = PK3CA_HUMAN peptide 288-293, time point 5 of 5
# [34] = PK3CA_HUMAN peptide 326-333, time point 1 of 5
# [35] = PK3CA_HUMAN peptide 326-333, time point 2 of 5
# [36] = PK3CA_HUMAN peptide 326-333, time point 3 of 5
# [37] = PK3CA_HUMAN peptide 326-333, time point 4 of 5
# T1 sequence (P42336 whole entry): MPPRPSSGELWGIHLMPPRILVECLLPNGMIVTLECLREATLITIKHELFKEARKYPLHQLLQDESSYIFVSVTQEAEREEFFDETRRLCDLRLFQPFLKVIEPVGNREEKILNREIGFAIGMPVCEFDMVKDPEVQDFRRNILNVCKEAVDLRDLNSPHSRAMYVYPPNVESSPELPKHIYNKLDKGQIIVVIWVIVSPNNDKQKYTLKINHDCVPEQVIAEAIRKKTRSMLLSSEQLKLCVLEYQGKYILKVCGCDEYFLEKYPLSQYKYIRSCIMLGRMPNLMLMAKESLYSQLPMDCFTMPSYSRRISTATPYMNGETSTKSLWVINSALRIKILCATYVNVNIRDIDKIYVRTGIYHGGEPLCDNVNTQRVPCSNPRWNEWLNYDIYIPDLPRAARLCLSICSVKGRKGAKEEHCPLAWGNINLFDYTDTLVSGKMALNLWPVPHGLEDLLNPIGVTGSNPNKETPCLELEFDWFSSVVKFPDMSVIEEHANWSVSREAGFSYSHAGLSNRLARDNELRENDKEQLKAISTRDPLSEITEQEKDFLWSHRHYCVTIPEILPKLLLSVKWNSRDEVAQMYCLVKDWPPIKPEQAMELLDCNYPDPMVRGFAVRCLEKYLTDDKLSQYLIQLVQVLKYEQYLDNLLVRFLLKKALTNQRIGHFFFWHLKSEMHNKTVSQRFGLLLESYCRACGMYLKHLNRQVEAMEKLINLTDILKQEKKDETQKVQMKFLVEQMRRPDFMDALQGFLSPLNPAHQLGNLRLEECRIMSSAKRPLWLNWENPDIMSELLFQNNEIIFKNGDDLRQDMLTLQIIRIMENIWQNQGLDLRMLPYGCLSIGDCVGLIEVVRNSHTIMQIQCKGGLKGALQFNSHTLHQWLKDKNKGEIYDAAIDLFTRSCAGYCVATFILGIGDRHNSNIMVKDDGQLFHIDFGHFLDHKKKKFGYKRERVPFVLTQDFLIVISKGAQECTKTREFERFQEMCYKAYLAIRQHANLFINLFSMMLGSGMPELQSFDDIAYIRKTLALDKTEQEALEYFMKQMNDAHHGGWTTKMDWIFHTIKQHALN
# T1 sequence (P27986 whole entry partner): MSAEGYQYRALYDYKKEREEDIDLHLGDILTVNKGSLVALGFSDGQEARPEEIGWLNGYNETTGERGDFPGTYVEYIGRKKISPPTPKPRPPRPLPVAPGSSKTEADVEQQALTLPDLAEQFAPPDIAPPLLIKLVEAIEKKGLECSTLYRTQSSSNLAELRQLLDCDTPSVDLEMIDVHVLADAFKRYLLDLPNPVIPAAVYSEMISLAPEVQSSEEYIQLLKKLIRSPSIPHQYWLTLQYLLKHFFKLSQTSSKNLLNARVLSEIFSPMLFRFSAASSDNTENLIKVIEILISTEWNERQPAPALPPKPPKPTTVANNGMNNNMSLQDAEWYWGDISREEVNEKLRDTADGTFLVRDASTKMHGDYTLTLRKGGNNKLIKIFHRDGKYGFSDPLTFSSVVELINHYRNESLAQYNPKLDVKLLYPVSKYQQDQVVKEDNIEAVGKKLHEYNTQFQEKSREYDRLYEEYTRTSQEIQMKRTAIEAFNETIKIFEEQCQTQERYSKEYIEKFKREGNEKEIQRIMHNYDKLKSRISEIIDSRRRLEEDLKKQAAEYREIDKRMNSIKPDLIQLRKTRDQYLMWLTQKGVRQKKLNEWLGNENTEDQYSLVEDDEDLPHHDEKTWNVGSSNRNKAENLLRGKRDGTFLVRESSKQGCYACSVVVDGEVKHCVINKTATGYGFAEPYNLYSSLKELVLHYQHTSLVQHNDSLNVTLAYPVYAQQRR
structure (smiles),measurement,setting,value
CCN1CCN(c2ccc(Nc3cc(Nc4cccc5c4N(C(C)=O)CC5)ccn3)cc2)CC1 [Compound 1938],HDX difference (%D),[1],0.6%
same,HDX difference (Da),[1],0.0529 Da
same,HDX difference (%D),[2],0.112%
same,HDX difference (Da),[2],0.01 Da
same,HDX difference (%D),[3],0.113%
same,HDX difference (Da),[3],0.01 Da
same,HDX difference (%D),[4],-0.0157%
same,HDX difference (Da),[4],-0.000943 Da
same,HDX difference (%D),[5],0.0014%
same,HDX difference (Da),[5],8.39e-5 Da
same,HDX difference (%D),[6],0.136%
same,HDX difference (Da),[6],0.00818 Da
same,HDX difference (%D),[7],0.659%
same,HDX difference (Da),[7],0.04 Da
same,HDX difference (%D),[8],1.2%
same,HDX difference (Da),[8],0.07 Da
same,HDX difference (%D),[9],-0.8%
same,HDX difference (Da),[9],-0.07 Da
same,HDX difference (%D),[10],0.264%
same,HDX difference (Da),[10],0.0238 Da
same,HDX difference (%D),[11],0.3%
same,HDX difference (Da),[11],0.0282 Da
same,HDX difference (%D),[12],-0.571%
same,HDX difference (Da),[12],-0.05 Da
same,HDX difference (%D),[13],-0.7%
same,HDX difference (Da),[13],-0.06 Da
same,HDX difference (%D),[14],1.3%
same,HDX difference (Da),[14],0.10 Da
same,HDX difference (%D),[15],0.9%
same,HDX difference (Da),[15],0.07 Da
same,HDX difference (%D),[16],0.8%
same,HDX difference (Da),[16],0.06 Da
same,HDX difference (%D),[17],0.743%
same,HDX difference (Da),[17],0.06 Da
same,HDX difference (%D),[18],0.428%
same,HDX difference (Da),[18],0.0342 Da
same,HDX difference (%D),[19],-0.131%
same,HDX difference (Da),[19],-0.01 Da
same,HDX difference (%D),[20],-0.178%
same,HDX difference (Da),[20],-0.0142 Da
same,HDX difference (%D),[21],-0.652%
same,HDX difference (Da),[21],-0.05 Da
same,HDX difference (%D),[22],-1.2%
same,HDX difference (Da),[22],-0.10 Da
same,HDX difference (%D),[23],-1.0%
same,HDX difference (Da),[23],-0.08 Da
same,HDX difference (%D),[24],0.00815%
same,HDX difference (Da),[24],0.000489 Da
same,HDX difference (%D),[25],0.168%
same,HDX difference (Da),[25],0.01 Da
same,HDX difference (%D),[26],-0.19%
same,HDX difference (Da),[26],-0.0114 Da
same,HDX difference (%D),[27],-0.0604%
same,HDX difference (Da),[27],-0.00362 Da
same,HDX difference (%D),[28],-0.4%
same,HDX difference (Da),[28],-0.0241 Da
same,HDX difference (%D),[29],-0.334%
same,HDX difference (Da),[29],-0.0167 Da
same,HDX difference (%D),[30],-0.17%
same,HDX difference (Da),[30],-0.00848 Da
same,HDX difference (%D),[31],-0.5%
same,HDX difference (Da),[31],-0.0241 Da
same,HDX difference (%D),[32],0.8%
same,HDX difference (Da),[32],0.04 Da
same,HDX difference (%D),[33],-0.113%
same,HDX difference (Da),[33],-0.00564 Da
same,HDX difference (%D),[34],-1.8%
same,HDX difference (Da),[34],-0.13 Da
same,HDX difference (%D),[35],-4.4%
same,HDX difference (Da),[35],-0.31 Da
same,HDX difference (%D),[36],-3.0%
same,HDX difference (Da),[36],-0.21 Da
same,HDX difference (%D),[37],-3.1%
same,HDX difference (Da),[37],-0.21 Da
same,HDX difference (%D),"PK3CA_HUMAN peptide 326-333, time point 5 of 5",-4.2%
